Measured values published in US20170215470A1, “USE OF A COMPOSITION CONTAINING A LONG-CHAIN POLYOL AS A BASE FOR E-LIQUIDS” (LABORATOIRES CERES, priority 2014, published 2017).
Like-named read-outs stand apart in the source and are kept apart here.

Assay: Thermal stability by thermogravimetric (TGA) and thermal differential analysis (TDA)
Type: physicochemical
Method: The thermogravimetric analysis is a method of thermal analysis in which the changes of the physical and chemical properties of the materials are measured as a function of the temperature. The TGA can supply information about the physical phenomena such as the vaporization or the combustion. Also, it is possible to obtain information about the chemical phenomena such as the dehydration or the decomposition. In the thermal differential analysis (TDA) the study material and an inert reference undergo identical thermic cycles. During the analysis the temperature difference between the sample and the reference is recorded. These temperature differences followed as a function of the rime relative to the inert reference inform us about the thermal phenomena undergone by the sample, whether exothermic or endothermic. […] The endothermic character is associated with a change of state of the compound (ex. vaporization) whereas the exothermic character is induced by reactions of decomposition or by intra- and intermolecular chemical reactions. The thermogravimetric analyzer […] of TA INSTRUMENT was used to conjointly determine the vaporization temperatures of the products, the enthalpy values and the rate of products not vaporized at 350° C. The analysis conditions are as follows: test size: 50 mg open crucible under flow of air: 100 ml/min rate of heating: 10° C./min temperature range: 25 to 350° C. (temperature conditions representative of a normal use as well as of misuse of an electronic cigarette). The apparatus is cleaned between each analysis by being heated to 600° C. under a flow of air in order to eliminate any trace of non-vaporized residue deposited on the crucible, the balance arms or the kiln walls.

Compound	TDA vaporization temperature (° C.) (1) (endothermic peak, 50 mg, air 100 ml/min, 10° C./min, 25 to 350° C.) [°C]	TDA transformation temperature (° C.) (2) (exothermic peak (reaction and/or decomposition), 50 mg, air 100 ml/min, 10° C./min)	TDA vaporization temperature (° C.) (1) [°C]	TGA non-evaporated residue at 250° C. (%)
CC(O)CCO (stereo not shown) [1,3-butane diol]	171	without any thermal decomposition	–	–
CN1CCCC1c1cccnc1 (stereo not shown) [Nicotine]	–	–	190	1.08
